Kd data for 97 compounds are collected here from PubChem BioAssay AID608 (Sanford-Burnham Center for Chemical Genomics, 2007).

Structures are written as SMILES. The source made the active and inactive calls. How the calls were made is not given here.

The target of this assay is Peptidyl-prolyl cis-trans isomerase FKBP1A (Homo sapiens) (UniProt P62942). The assay can be described thus: small-molecule binding to FKBP12 – biophysical, NMR detection (AID 608). Conditions: purified FKBP12.
Peptidyl-prolyl cis-trans isomerase FKBP1A (Homo sapiens), sequence (P62942 whole entry, looked up): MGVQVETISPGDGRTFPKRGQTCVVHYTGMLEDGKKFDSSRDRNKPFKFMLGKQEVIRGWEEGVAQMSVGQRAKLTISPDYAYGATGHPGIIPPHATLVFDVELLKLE
Turning to `Cn1nnc2cc(CO)ccc21`, the Kd (commonly a measure of binding affinity in units of concentration) is > 4 mM (inactive).

For `CC(C1OC(C)(C)C(O)C1O)[C@@H]1CC[C@]2(C)C3=CCC4C(C)(C)C(=O)CC[C@]4(C)C3CC[C@@]12C` (some centres not stated), the Kd was > 4 mM (inactive). For the compound `NC(=O)c1ccc(N2C(=O)CCC2=O)cc1Cl`, the Kd was > 4 mM (inactive). Under `CC1(c2ccncc2)NC(=O)NC1=O` (configuration not stated) stands > 4 mM (inactive); under `CC(C)c1c(O)ccc2c1CCC1[C@@](C)(C=O)CCC[C@]21C` (some centres not stated), > 4 mM (inactive). Next, `COC(=O)[C@]1(C)CCC[C@]2(C)c3ccc(C(C)C)cc3C(=O)CC12` (some centres not stated): > 4 mM (inactive); `COCCOc1nc2ccccc2nc1C`: > 4 mM (inactive). Under `Cc1nc(-c2ccccc2)ncc1CO` stands > 4 mM (inactive). As to `O=c1c2c(nc3nc(Cc4ccccc4)[nH]n13)CCC2`, the Kd is > 4 mM (inactive). Next, `Brc1ccc(-c2nc(-c3ccncc3)no2)o1`: > 4 mM (inactive). For the compound `O=C(c1ccc(F)cc1)N1CCOCC1`, the Kd was > 4 mM (inactive).

With `Cc1ccc2c(c1)CCCN2C(=O)c1ccncc1`, the Kd was > 4 mM (inactive). As for `CCOC(=O)c1c(C)n([O-])c2ccccc2[n+]1=O`, the Kd is > 4 mM (inactive). In the case of `COc1ccc2[nH]cc(CN(C)C)c2c1`, the Kd is > 4 mM (inactive).

For the compound `CN1CCC(=NNC(=O)c2ccco2)CC1`, the Kd was > 4 mM (inactive). Next, `Nc1cc(=O)[nH]c(=O)n1-c1ccccc1`: > 4 mM (inactive).

As to `O=C(CS(=O)(=O)c1ccccc1)N1CCCCCC1`, the Kd is > 4 mM (inactive).

For `COC[C@]12CN(C=O)C3[C@@H]4[C@H](OC)C1[C@]3(C1CC3(O)C(OC)C(O)C4(OC(C)=O)C1C3OC(=O)c1ccccc1)[C@@H](OC)C[C@H]2O` (some centres not stated), the Kd was > 4 mM (inactive). Next, `Nc1cc(C(F)(F)F)ccc1N1CCOCC1`: > 4 mM (inactive); `O=C(CSc1nnc2ccccn12)N1CCOCC1`: 0.221 mM. For `Cc1cc(C)n(C/C=C/Cn2nc(C)cc2C)n1`, the Kd was > 4 mM (inactive). Under `CSc1nc2cc(F)c(F)cc2n1C` stands > 4 mM (inactive).

Regarding `NC(=O)CSCc1c(Cl)cccc1Cl`, the Kd was > 4 mM (inactive).

Turning to `COc1ccccc1NC(=O)/C=N/O`, the Kd was > 4 mM (inactive).

For the compound `O=C1C=C(Nc2ccccc2O)c2ccccc2C1=O`, the Kd was > 4 mM (inactive). Next, `CC(=O)N1CCN(c2ccc(N)cc2)CC1`: > 4 mM (inactive); `O=c1nc(C(F)(F)F)nc2ccccn12`: > 4 mM (inactive); `CSc1ccn(CCC(=O)O)c(=O)n1`: > 4 mM (inactive). Under `O=C(Nc1nccs1)c1cccnc1` stands > 4 mM (inactive). Next, `Cn1c(SCc2ccon2)nc2ccccc2c1=O`: > 4 mM (inactive). As to `Cc1cn(C(=O)CN2C(=O)c3ccccc3C2=O)c(C)n1`, the Kd is > 4 mM (inactive). Next, `CC(=O)/C=C\[C@@H]1[C@@]2(C)CCCC(C)(C)C2CC[C@@]1(C)O` (some centres not stated): > 4 mM (inactive); `O=C(O)CN1C(=O)c2cccc([N+](=O)[O-])c2C1=O`: > 4 mM (inactive). Next, `CCSc1nnc2[nH]c(=O)cc(C)n12`: > 4 mM (inactive). Under `O=c1c(-c2ccccc2)coc2cc(O)cc(O)c12` stands > 4 mM (inactive); under `COc1cc(-c2coc3cc(OCc4ccccc4)c(OC)c(O)c3c2=O)cc(O)c1OC`, > 4 mM (inactive); under `O=C(Nc1cccc2ncccc12)c1cccnc1`, > 4 mM (inactive). For `Cc1cc[n+](-c2nc([O-])sc2C=O)cc1`, the Kd is > 4 mM (inactive). Turning to `Nc1ccc(NS(=O)(=O)c2ccc(N)cc2)cc1`, the Kd was > 4 mM (inactive). In the case of `C/C=C(\C)C(=O)O[C@@H]1c2c(ccc3ccc(=O)oc23)OC(C)(C)[C@@H]1OC(C)=O`, the Kd is > 4 mM (inactive). Under `CC(=O)O[C@@H]1CC2C(C)(C)[C@@H](O)CC[C@]2(C)C2CC[C@@]3(C)[C@H](c4ccoc4)OC(=O)[C@H]4O[C@]43[C@@]21C` (some centres not stated) stands > 4 mM (inactive); under `Oc1cccc2[nH]ccc12`, > 4 mM (inactive). Regarding `O=c1cnnc(Nc2ccc(O)cc2)[nH]1`, the Kd is > 4 mM (inactive). Under `Cc1ccccc1NC(=O)C1CCC(=O)N1` (configuration not stated) stands > 4 mM (inactive); under `Cc1nc2sc3c(c2c(=N)n1N)CC(C)(C)OC3`, > 4 mM (inactive). Under `COC(=O)CCC(C)[C@H]1CCC2C3C(C[C@H](O)[C@@]21C)[C@@]1(C)CC[C@@H](O)C[C@H]1C[C@H]3O` (some centres not stated) stands > 4 mM (inactive). Next, `Nc1cc(=O)[nH]c(=S)n1-c1ccc(F)cc1`: > 4 mM (inactive). `O/N=C1/CCCc2nonc21`: the Kd was > 4 mM (inactive).

For the compound `O=C(Cc1c(F)cccc1Cl)Nc1ccncc1`, the Kd is > 4 mM (inactive). Next, `C=C[C@@H](C1=CC(=O)C(OC)=C(OC)C1=O)c1ccccc1`: > 4 mM (inactive).

As for `NC(=O)C1CCN(c2ccc(Cl)nn2)CC1`, the Kd was > 4 mM (inactive). Under `O=c1cc(-c2cc(O)c(O)c(O)c2)oc2cc(O)cc(O)c12` stands > 4 mM (inactive); under `c1cnc(N2CCSCC2)nc1`, > 4 mM (inactive); under `CC(=O)c1c(C)n([O-])c2ccccc2[n+]1=O`, > 4 mM (inactive). Next, `O=C(Nn1cnnc1)c1ccccc1-c1ccccc1`: > 4 mM (inactive). Under `Cc1noc(C)c1C(=O)Nc1ccccc1-c1ccccc1` stands > 4 mM (inactive); under `Cc1nn(C)c(C)c1NC(=S)NC1CCCC1`, > 4 mM (inactive).

In the case of `O=C(NCc1ccccn1)c1ccccc1Cl`, the Kd was > 4 mM (inactive). For `COC1CC(O[C@H]2CC[C@]3(C=O)C4CC[C@]5(C)C(C6=CC(=O)OC6)CC[C@]5(O)C4CC[C@]3(O)C2)OC(C)C1O` (some centres not stated), the Kd is > 4 mM (inactive). Under `O=CN1CCN(C2CC(=O)N(c3ccccc3)C2=O)CC1` (configuration not stated) stands > 4 mM (inactive). Next, `Cc1c(C(=O)NCc2ccccn2)oc2ccccc12`: > 4 mM (inactive). Next, `Nc1nc(SCc2ccc3c(c2)OCO3)n[nH]1`: > 4 mM (inactive); `C/C=C(\C)c1nnc(NC(=O)C(C)C)s1`: > 4 mM (inactive). On to `C[C@H](CCC(=O)O)[C@H]1CCC2C3C(CC[C@@]21C)[C@@]1(C)CC[C@@H](O)C[C@H]1C[C@H]3O` (some centres not stated), for which the Kd is > 4 mM (inactive). Next, `NC(=S)NC(=O)CN1C(=O)c2ccccc2C1=O`: > 4 mM (inactive).

For `Cc1cc(/C=N/O)nc(=O)[nH]1`, the Kd is > 4 mM (inactive).

Regarding `NC(=O)CNC(=O)c1ccccc1`, the Kd is > 4 mM (inactive). Next, `CC(C)=CCOc1cc2oc(=O)ccc2cc1O`: > 4 mM (inactive); `Cc1cccc(-n2c(N)cc(=O)[nH]c2=S)c1C`: > 4 mM (inactive); `NCc1ccc2c(c1)CCO2`: > 4 mM (inactive). Turning to `Nc1ccccc1N=C1CNC(=O)C1`, the Kd was > 4 mM (inactive). Next, `CC(=O)Oc1cccc2ccc(=O)[nH]c12`: > 4 mM (inactive); `Nc1ccc(S(=O)(=O)N2CCCCC2)cc1`: > 4 mM (inactive). Under `C/C=C(/C)C(=O)O[C@@H]1[C@H](OC(C)=O)[C@@]2(CO)C(CC1(C)C)C1=CCC3[C@@]4(C)CC[C@H](O[C@@H]5O[C@H](C(=O)O)[C@@H](O[C@@H]6O[C@H](CO)[C@@H](O)[C@H](O)[C@H]6O)[C@H](O)[C@H]5O[C@@H]5O[C@H](CO)[C@@H](O)[C@H](O)[C@H]5O)[C@](C)(CO)C4CC[C@@]3(C)[C@]1(C)C[C@H]2O` (some centres not stated) stands > 4 mM (inactive); under `CSc1ccccc1NC(=O)c1c(C)noc1C`, > 4 mM (inactive). Under `COC1C(O)C(O)C(O)[C@@H](O)C1O` (some centres not stated) stands > 4 mM (inactive). In the case of `Cc1ccc(/C=C2/C(=O)N=C(N)N2C)s1`, the Kd is > 4 mM (inactive). Under `CC(CCC(=O)O)[C@H]1CCC2C3C[C@H](O)[C@@H]4C[C@H](O)CC[C@]4(C)C3CC[C@@]21C` (some centres not stated) stands > 4 mM (inactive); under `O=C1CCC([N+](=O)[O-])C(c2ccccc2F)N1` (configuration not stated), > 4 mM (inactive). As to `CN1CCN(C(=S)NC(=O)c2ccn(C)n2)CC1`, the Kd was > 4 mM (inactive).

`CC(C)CNc1cc(=O)n(C)c(=O)n1C`: the Kd is > 4 mM (inactive). Under `COc1ccc([C@@H]2CC(=O)c3c(O)cc(O)cc3O2)cc1O` stands > 4 mM (inactive).

As for `CS(=O)(=O)N1CCN(C(=O)c2ccccc2)CC1`, the Kd is > 4 mM (inactive). Next, `COc1cc(C)c2c(c1C=O)Oc1c(c(C)c(O)c3c1C(O)OC3=O)OC2=O` (configuration not stated): > 4 mM (inactive); `O=C(c1ccncc1)N1CCN(C(=O)c2ccco2)CC1`: > 4 mM (inactive). Next, `O=c1/c(=C/c2ccccc2F)sc2ncnn12`: > 4 mM (inactive); `O=C(O)c1csc(-c2cccs2)n1`: > 4 mM (inactive); `c1ccc(-c2csc(Nc3cccnc3)n2)nc1`: > 4 mM (inactive). Next, `CC1(C)CC2C1CCC1(C)OC1CCC2(C)O` (configuration not stated): > 4 mM (inactive); `COc1cc(OC)c(-c2c(OC)cc(OC)cc2OC)c(OC)c1`: > 4 mM (inactive); `CC(C(N)=O)N1C(=O)c2ccccc2C1=O` (configuration not stated): > 4 mM (inactive). Take `O=C(O)CC1C(=O)NCCN1Cc1cccs1` (configuration not stated): the Kd is > 4 mM (inactive).

Regarding `Nc1ncnc2nc[nH]c12`, the Kd is > 4 mM (inactive). Next, `CC(C)CCCC(C)C1CCC2C3=CC[C@H]4C[C@@H](O)CC[C@]4(C)C3CC[C@@]21C` (some centres not stated): > 4 mM (inactive).

`CN(C)c1nc(N)nc(-c2nc3ccccc3s2)n1`: the Kd is > 4 mM (inactive).

Consider `Nc1nc(-c2ccc(Cl)cc2)nn1C(=O)c1cccnc1`, for which the Kd is > 4 mM (inactive). Under `NCc1ccc(S(=O)(=O)O)cc1` stands > 4 mM (inactive).
